Test results: publication PMC6770091, “P-Glycoprotein 1 Affects Chemoactivities of Resveratrol against Human Colorectal Cancer Cells” (Nutrients, 2019)
Values belong to the compound of their own block, whether it stands above or below them.

Assays:
MRP1 = molecular target: T1, MRP1 (Homo sapiens, UniProt P33527); experiment: [3H]-resveratrol efflux, BHK 21 vs BHK21-MRP1 overexpressing clone; type: in vitro ADME; details: BHK 21/MRP1 vs control BHK 21, 30 µM [3H]-resveratrol, 37°C
T1 construct: expressed in transfected cells; host or cells: BHK 21 (baby hamster kidney) stably transfected clone BHK21-MRP1, provided by Dr. Attilio Di Pietro
Method: (§1) Resveratrol efflux was examined by incubating confluent cells in 6-well plates over 10 min with 30 µM tritiated resveratrol in complete medium at 37 °C. […] At the end of the incubation period, the labeled medium was removed and the cells were washed two times with PBS. Fresh medium (37 °C or 4 °C) was then quickly added to allow the cells to efflux tritiated resveratrol from 1 to 360 min. At the end of each time point, the cells were washed and lysed in NaOH 0.1 M, Na2CO3 2%, SDS 0.1%. The cell homogenates were transferred into flasks and cell-associated radioactivity was counted in a liquid scintillation analyzer. We evaluated 60 min area under curves (AUC) by integrating exponential regression curves of [^3H]-resveratrol time course accumulation between 0 and 60 min.

MRP2 = details: human, 30 µM
Method: as §1

MDR1 = details: mouse, not told, 30 µM
Method: as §1

BCRP = details: human, not told, 30 µM
Method: as §1

HT29 cells [1] = experiment: [3H]-resveratrol efflux measurement; type: in vitro ADME, human; details: after 10 min uptake of 30 µM [3H]-resveratrol
Method: as §1

HCT116 cells [2] = experiment: [3H]-resveratrol efflux measurement; type: in vitro ADME, human; details: after 10 min uptake of 30 µM [3H]-resveratrol
Method: as §1

SW620 cells [3] = experiment: [3H]-resveratrol efflux measurement; type: in vitro ADME, human; details: after 10 min uptake of 30 µM [3H]-resveratrol
Method: as §1

SW480 cells [4] = experiment: [3H]-resveratrol efflux measurement; type: in vitro ADME, human; details: for Vi = % of Resveratrol Efflux . min^−1: after 10 min uptake of 30 µM [3H]-resveratrol
Method: as §1, with “analyzer.” for “analyzer. We evaluated 60 min area under curves (AUC) by integrating exponential regression curves of [^3H]-resveratrol time course accumulation between 0 and 60 min.”

HT29 cells [5] = experiment: Cytotoxicity assay, crystal violet staining; type: cell-based; details: Homo sapiens, HT-29, HT29, 72 h, read-out: IC50 (concentration inhibiting 50% of the tumor proliferation)
Method: (§2) Cell lines were seeded into 96-well plates. After 24 h of culture, the cells were treated with increasing concentrations of resveratrol for 72 h. All control and treated cells received the same volume of ethanol (0.1%). After time of treatment, cells were harvested and the toxicities were evaluated by crystal violet staining. Briefly, after treatments cells were washed with PBS 1X, stained for 5 min with a crystal violet solution (0.5% (w/v) crystal violet in 25% (v/v) methanol), and then gently rinsed with water. Absorbances were read at 540 nm with a Biochrom Asys UVM 340 spectrophotometer, after the extraction of the dye by 0.1 M sodium citrate in 50% ethanol. The inhibitory concentrations 50% (IC50) were assessed by crystal violet staining after 72 h of treatment. IC50 values were calculated by a four-parameter non-linear regression with GraphPad Prismversion 6 software (San Diego, California, CA, USA). In some experiments, after 24 h of seeding, cells were treated with resveratrol (30 µM) for 48 h before crystal violet staining. All results were expressed as percentages of control values (vehicle alone).

SW480 cells [6] = experiment: Cytotoxicity assay, crystal violet staining; type: cell-based; details: Homo sapiens, SW480, 72 h, read-out: IC50 (concentration inhibiting 50% of the tumor proliferation)
Method: as §2

HCT116 cells [7] = experiment: Cytotoxicity assay, crystal violet staining; type: cell-based; details: Homo sapiens, HCT-116, HCT116, 72 h, read-out: IC50 (concentration inhibiting 50% of the tumor proliferation)
Method: as §2

SW620 cells [8] = experiment: Cytotoxicity assay, crystal violet staining; type: cell-based; details: Homo sapiens, SW-620, SW620, 72 h, read-out: IC50 (concentration inhibiting 50% of the tumor proliferation)
Method: as §2

[9] = system: colon carcinoma cells (all cell lines); experiment: [3H]-resveratrol efflux in presence of other ABC protein inhibitors; type: cell-based, human

T1 sequence (P33527 whole entry): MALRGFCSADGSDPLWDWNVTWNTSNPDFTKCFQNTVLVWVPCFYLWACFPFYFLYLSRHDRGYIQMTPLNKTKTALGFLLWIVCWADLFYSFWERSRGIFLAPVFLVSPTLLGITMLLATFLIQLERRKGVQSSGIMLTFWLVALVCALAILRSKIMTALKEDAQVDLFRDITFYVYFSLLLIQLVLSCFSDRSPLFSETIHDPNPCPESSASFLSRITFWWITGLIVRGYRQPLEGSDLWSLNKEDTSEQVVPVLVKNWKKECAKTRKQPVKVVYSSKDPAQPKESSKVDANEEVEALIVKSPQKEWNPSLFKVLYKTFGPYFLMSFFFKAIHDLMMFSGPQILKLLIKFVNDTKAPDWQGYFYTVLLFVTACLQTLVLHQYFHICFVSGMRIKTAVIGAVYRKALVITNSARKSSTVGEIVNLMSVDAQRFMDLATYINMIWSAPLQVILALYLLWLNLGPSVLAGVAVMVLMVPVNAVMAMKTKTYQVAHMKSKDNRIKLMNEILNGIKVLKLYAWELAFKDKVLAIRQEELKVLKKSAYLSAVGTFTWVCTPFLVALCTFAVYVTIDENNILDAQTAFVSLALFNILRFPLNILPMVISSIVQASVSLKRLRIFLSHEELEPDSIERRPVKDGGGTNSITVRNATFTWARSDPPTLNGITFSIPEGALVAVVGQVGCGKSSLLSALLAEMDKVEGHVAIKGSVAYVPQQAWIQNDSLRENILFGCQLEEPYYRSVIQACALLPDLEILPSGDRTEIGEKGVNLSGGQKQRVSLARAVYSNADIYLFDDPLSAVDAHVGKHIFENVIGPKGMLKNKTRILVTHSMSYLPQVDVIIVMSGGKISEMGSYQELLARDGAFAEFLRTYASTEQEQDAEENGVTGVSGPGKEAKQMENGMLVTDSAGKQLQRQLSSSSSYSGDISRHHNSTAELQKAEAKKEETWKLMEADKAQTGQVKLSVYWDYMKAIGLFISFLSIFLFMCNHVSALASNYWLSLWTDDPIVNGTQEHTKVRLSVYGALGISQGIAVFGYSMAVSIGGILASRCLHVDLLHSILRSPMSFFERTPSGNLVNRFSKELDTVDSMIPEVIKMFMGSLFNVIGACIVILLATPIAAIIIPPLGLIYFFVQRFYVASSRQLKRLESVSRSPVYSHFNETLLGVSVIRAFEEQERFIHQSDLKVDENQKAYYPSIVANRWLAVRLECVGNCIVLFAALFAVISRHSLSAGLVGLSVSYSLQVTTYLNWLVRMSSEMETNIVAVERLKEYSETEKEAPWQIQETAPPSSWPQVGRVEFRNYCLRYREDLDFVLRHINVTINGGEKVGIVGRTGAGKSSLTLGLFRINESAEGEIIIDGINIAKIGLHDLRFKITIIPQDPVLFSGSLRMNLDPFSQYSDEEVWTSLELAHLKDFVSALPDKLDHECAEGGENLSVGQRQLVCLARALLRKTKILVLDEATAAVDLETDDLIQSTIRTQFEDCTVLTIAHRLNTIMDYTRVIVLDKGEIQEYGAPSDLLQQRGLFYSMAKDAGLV

- effect of MRP1 overexpression on intracellular RSV level (MRP1): early slight effect
- AUC (0-60 min, intracellular RSV level) diminished between control cells and MRP2 overexpressing one (MRP2): 1.2 fold
- inhibition of RSV accumulation (AUC 0-60 min of intracellular RSV level) by transporter overexpression (MDR1): 1.7 fold
- inhibition of RSV accumulation (AUC 0-60 min of intracellular RSV level) by transporter overexpression (BCRP): 1.7 fold
- Vi = % of Resveratrol Efflux . min^−1 (HT29 cells [1]; HT29, 4°C): 4.3 % of Resveratrol Efflux . min^−1
- Vi = % of Resveratrol Efflux . min^−1 (HT29 cells [1]; HT29, 37 °C): 5.9 % of Resveratrol Efflux . min^−1
- Vi = % of Resveratrol Efflux . min^−1 (HCT116 cells [2]; HCT116, 4°C): 2.6 % of Resveratrol Efflux . min^−1
- Vi = % of Resveratrol Efflux . min^−1 (HCT116 cells [2]; HCT116, 37 °C): 6.4 % of Resveratrol Efflux . min^−1
- Vi = % of Resveratrol Efflux . min^−1 (SW620 cells [3]; SW620, 4°C): 2.8 % of Resveratrol Efflux . min^−1
- Vi = % of Resveratrol Efflux . min^−1 (SW620 cells [3]; SW620, 37 °C): 5.7 % of Resveratrol Efflux . min^−1
- Vi = % of Resveratrol Efflux . min^−1 (SW480 cells [4]; SW480, 4°C): 4.7 % of Resveratrol Efflux . min^−1
- Vi = % of Resveratrol Efflux . min^−1 (SW480 cells [4]; SW480, 37 °C): 6.3 % of Resveratrol Efflux . min^−1
SMILES: Oc1ccc(/C=C/c2cc(O)cc(O)c2)cc1 [RSV, trans 3,5,4′ trihydroxystilbene]
- IC50 (HT29 cells [5]): ~40 µM
- IC50 (SW480 cells [6]): ~70 µM
- IC50 (HCT116 cells [7]): ~25 µM
- IC50 (SW620 cells [8]): ~20 µM

SMILES: COc1ccc2c(c1)c(CC(=O)O)c(C)n2C(=O)c1ccc(Cl)cc1 [indomethacin, reference compound]
- inhibition of the release of RSV (SW480 cells [4]; SW480, inhibitor 20 µM pretreatment 10 min, 5 min efflux at 37 °C): 1.8 fold

SMILES: [O]=[V]([O-])([O-])[O-] [orthovanadate]
- effect on resveratrol retention [9]: enhance resveratrol retention

SMILES: C[C@@H]1O[C@@H](O[C@H]2C[C@@H](O)[C@]3(CO)[C@H]4[C@H](O)C[C@]5(C)[C@@H](C6=CC(=O)OC6)CC[C@]5(O)[C@@H]4CC[C@]3(O)C2)[C@H](O)[C@H](O)[C@H]1O [ouabain]
- effect on resveratrol retention [9]: enhance resveratrol retention

SMILES: CCCN(CCC)S(=O)(=O)c1ccc(C(=O)O)cc1 [probenicid]
- effect on resveratrol retention [9]: enhance resveratrol retention

SMILES: O=c1c(O)c(-c2ccc(O)c(O)c2)oc2cc(O)cc(O)c12 [quercetin]
- effect on resveratrol retention [9]: enhance resveratrol retention

SMILES: C=C[C@H]1C[N@@]2CC[C@H]1C[C@H]2[C@H](O)c1ccnc2ccc(OC)cc12 [quinine]
- effect on resveratrol retention [9]: enhance resveratrol retention
